A short description of this data set: Plasma noribogaine glucuronide pharmacokinetics after noribogaine dosing, healthy volunteers. The format is in vivo, human. To be noted: for AUC0-216 / AUC0-∞ / Cmax / Tmax / t1/2: healthy male volunteers, mean (n = 6).
[1] abbreviates: plasma glucuronide after single oral 30 mg noribogaine.
Where [2] appears, read: plasma glucuronide after single oral 60 mg noribogaine.

Consider one compound from US20150231147A1, “METHODS FOR ACUTE AND LONG-TERM TREATMENT OF DRUG ADDICTION” (DemeRx, Inc., priority 2014, published 2015).

Where only a bound is given, the exact number is not on record here.

`CC[C@H]1C[C@@H]2C[C@H]3c4[nH]c5ccc(OC6OC(C(=O)O)C(O)C(O)C6O)cc5c4CCN(C2)[C@@H]13` (some centres unmarked) [Noribogaine glucuronide]: for the setting “30 mg and 60 mg noribogaine dose groups”, the “Mean half-life of plasma noribogaine glucuronide” value fell in the range of 21 to 23 h. Moreover, the “proportion of noribogaine glucuronide Cmax and AUC relative to noribogaine” value (both dose groups (30 mg and 60 mg)) is recorded as 3-4%. Moreover, under setting [1], the AUC0-216 stood at 25.7 ng·h/mL, the “AUC0-∞” value was 25.8 ng·h/mL, the Cmax turned out to be 1.8 ng/mL and the Tmax is 3.0 h. The t1/2 under setting [1] was 20.6 h. Besides, under setting [2], the AUC0-216 came to 65.0 ng·h/mL, the “AUC0-∞” value came out at 67.1 ng·h/mL, the Cmax was 4.1 ng/mL and the Tmax was determined as 3.8 h. The compound also came in with a t1/2 under setting [2] of 23.1 h. Further, for the setting “plasma glucuronide, 30 mg and 60 mg noribogaine dose groups”, the “time of peak concentrations after noribogaine dosing” value was in the range of 3 to 4 h. Further, the “time by which noribogaine glucuronide was detected in all subjects” value (plasma, 30 mg and 60 mg noribogaine dose groups) was at most 0.75 h.
